In patent publication US20200405696A1, “INHIBITORS OF INDOLEAMINE 2,3-DIOXYGENASE AND/OR TRYPTOPHAN 2,3-DIOXYGENASE” (IDORSIA PHARMACEUTICALS LTD, priority 2018, published 2020) one finds IC50 data, which are given here for 26 molecules.

A value given as a limit tells only on which side of the number the result lay.

Assay [1] deals with T1, Recombinant full-length human IDO1 (Homo sapiens, UniProt P14902).
T1 construct: Recombinant full-length human IDO1 with a N-terminal hexahistidine tag; hexahistidine (His6) (N); made in house; host or cells: E. coli
The experiment in a line: IDO1 enzymatic assay (NFK quantified by LCMS). As to conditions: 2 nM enzyme, 5 μM L-tryptophan, pH6.5, 30 minutes pre-incubation at RT; mean values when measured multiple times; read-out: hIDO activity (IC50 in nM). The assay is classed as biochemical. Put shortly:
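IC50 comes from four-parameter logistic fits of duplicate data, with NFK quantified by LCMS and normalized to L-Trp-(indole-d5). Compound (0.5 nM–10 μM) was preincubated 30 min at RT with 2 nM E. coli-expressed IDO1 before a 30 min reaction with 5 μM tryptophan in pH 6.5 buffer containing ascorbate and methylene blue.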

The target of assay [2] is T2, Recombinant human TDO comprising amino acids 19-407 (Homo sapiens, UniProt P48775).
T2 construct: Recombinant human TDO comprising amino acids 19-407 with a N-terminal hexahistidine tag; hexahistidine (His6) (N); made in house; host or cells: E. coli
As to the kind of experiment: TDO2 enzymatic assay (NFK quantified by LCMS). The assay is classed as biochemical. The note with it: 15 nM enzyme, 200 μM L-tryptophan, pH7, 30 minutes pre-incubation at RT; mean values when measured multiple times; read-out: hTDO activity (IC50 in nM). Put shortly: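 NFK formed over 30 min at RT from 200 μM L-tryptophan was measured by LCMS, normalized to d5-tryptophan, after compound (0.5 nM–10 μM, duplicates, 0.6% DMSO) was preincubated 30 min with 15 nM recombinant His-tagged TDO 19-407 in phosphate buffer pH 7. IC50 from four-parameter logistic fit; repeats averaged.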

T2 sequence (P48775 19-406 limits assumed): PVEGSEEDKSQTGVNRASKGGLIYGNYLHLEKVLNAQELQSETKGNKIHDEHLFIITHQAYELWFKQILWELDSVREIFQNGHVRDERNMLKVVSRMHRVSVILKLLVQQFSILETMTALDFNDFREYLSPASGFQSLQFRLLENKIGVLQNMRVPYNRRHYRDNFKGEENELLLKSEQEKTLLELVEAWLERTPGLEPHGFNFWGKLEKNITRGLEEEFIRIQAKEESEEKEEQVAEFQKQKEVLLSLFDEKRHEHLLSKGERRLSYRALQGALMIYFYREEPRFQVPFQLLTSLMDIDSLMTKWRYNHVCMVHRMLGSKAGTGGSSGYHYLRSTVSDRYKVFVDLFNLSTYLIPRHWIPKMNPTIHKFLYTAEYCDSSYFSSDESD
T1 sequence (P14902 whole entry): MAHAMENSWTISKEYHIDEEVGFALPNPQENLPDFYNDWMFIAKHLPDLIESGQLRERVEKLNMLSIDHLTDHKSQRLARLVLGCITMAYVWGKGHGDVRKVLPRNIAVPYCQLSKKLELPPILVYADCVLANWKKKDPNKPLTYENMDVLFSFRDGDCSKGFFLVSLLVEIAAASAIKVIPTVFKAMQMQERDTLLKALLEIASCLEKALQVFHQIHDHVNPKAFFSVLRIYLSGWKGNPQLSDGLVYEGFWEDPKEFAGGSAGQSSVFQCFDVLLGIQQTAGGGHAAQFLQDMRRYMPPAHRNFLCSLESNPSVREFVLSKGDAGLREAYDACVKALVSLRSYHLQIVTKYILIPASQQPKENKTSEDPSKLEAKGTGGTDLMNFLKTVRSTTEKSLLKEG

As for `COc1ccc(-n2cc(C(O)c3c(C4(C)CC4)sc4cncn34)nn2)cc1` (racemic) [Example 44, rac-[1-(4-Methoxy-phenyl)-1H-[1,2,3]triazol-4-yl]-[2-(1-methyl-cyclopropyl)-imidazo[5,1-b]thiazol-3-yl]-methanol], the IC50 in assay [1] is 38.8 nM; in assay [2] it was > 10200 nM.

For `N#Cc1ccc(-n2cc(C(O)c3c(C4CC4)sc4cncn34)nn2)cc1` (racemic) [Example 11, rac-4-{4-[(2-Cyclopropyl-imidazo[5,1-b]thiazol-3-yl)-hydroxy-methyl]-[1,2,3]triazol-1-yl}-benzonitrile], the figures for the concentration for half-maximal inhibition (IC50) in assay [1] and in assay [2] were 39.6 nM and > 10200 nM, respectively.

Turning to `CC(C)Oc1ccc(-n2cc(C(O)c3c(C4CC4)sc4cncn34)nn2)cn1` (racemic) [Example 82, rac-(2-Cyclopropyl-imidazo[5,1-b]thiazol-3-yl)-[1-(6-isopropoxy-pyridin-3-yl)-1H-[1,2,3]triazol-4-yl]-methanol], the values for the IC50 in assay [1] and in assay [2] were 44.2 nM and > 10200 nM, respectively.

Consider `CCc1sc2cncn2c1C(O)c1cn(-c2ccc(C(=O)NCc3ccco3)cc2)nn1` (racemic) [Example 123, rac-4-{4-[(2-Ethyl-imidazo[5,1-b]thiazol-3-yl)-hydroxy-methyl]-[1,2,3]triazol-1-yl}-N-furan-2-ylmethyl-benzamide], for which the IC50 in assay [1] stood at 8.09 nM; in assay [2], 6770 nM.

As to `COCCOc1ccc(-n2cc(C(O)c3c(C4CC4)sc4cncn34)nn2)cc1` (racemic) [Example 91, rac-(2-Cyclopropyl-imidazo[5,1-b]thiazol-3-yl)-{1-[4-(2-methoxy-ethoxy)-phenyl]-1H-[1,2,3]triazol-4-yl}-methanol], the IC50 was 12.9 nM in assay [1] and > 10200 nM in assay [2].

As to `CCc1sc2cncn2c1C(O)c1cn(-c2ccc(C(=O)NCCN(C)C)cc2)nn1` (racemic) [Example 119, rac-N-(2-Dimethylamino-ethyl)-4-{4-[(2-ethyl-imidazo[5,1-b]thiazol-3-yl)-hydroxy-methyl]-[1,2,3]triazol-1-yl}-benzamide], the IC50 in assay [1] was determined as 133 nM; in assay [2], 9720 nM.

Take `COc1ccc(-n2cc(C(O)c3c(C4CC4)sc4cncn34)cn2)cc1` (racemic) [Example 99, rac-(2-Cyclopropyl-imidazo[5,1-b]thiazol-3-yl)-[1-(4-methoxy-phenyl)-1H-pyrazol-4-yl]-methanol]: the IC50 in assay [1] was found to be 31.8 nM; in assay [2] it was 3570 nM.

Consider `OC(c1cn(-c2cn[nH]c2)nn1)c1c(C2CC2)sc2cncn12` (racemic) [Example 41, rac-(2-Cyclopropyl-imidazo[5,1-b]thiazol-3-yl)-[1-(1H-pyrazol-4-yl)-1H-[1,2,3]triazol-4-yl]-methanol], for which the IC50 in assay [1] was 305 nM; in assay [2], > 10200 nM.

`CCc1sc2cncn2c1C(O)c1cn(-c2ccc(NC(C)=O)cc2)nn1` (racemic) [Example 110, rac-N-(4-{4-[(2-Ethyl-imidazo[5,1-b]thiazol-3-yl)-hydroxy-methyl]-[1,2,3]triazol-1-yl}-phenyl)-acetamide]: the IC50 is 13.1 nM in assay [1] and 4290 nM in assay [2].

With `OC(c1cn(-c2ccc(OCC3(F)COC3)c(Cl)c2)nn1)c1c(-c2ccccc2)sc2cncn12` (racemic) [Example 266, rac-{1-[3-Chloro-4-(3-fluoro-oxetan-3-ylmethoxy)-phenyl]-1H-[1,2,3]triazol-4-yl}-(2-phenyl-imidazo[5,1-b]thiazol-3-yl)-methanol], the figures for the IC50 in assay [1] and in assay [2] were 179 nM and > 10200 nM, respectively.

Regarding `CCc1sc2cncn2c1C(O)c1cn(-c2cc(Cl)c(OC)cc2F)nn1` (racemic) [Example 319, rac-[1-(5-Chloro-2-fluoro-4-methoxy-phenyl)-1H-[1,2,3]triazol-4-yl]-(2-ethyl-imidazo[5,1-b]thiazol-3-yl)-methanol], the IC50 amounted to 3.18 nM in assay [1] and 4430 nM in assay [2].

With `O=C(Nc1ccc(-n2cc(C(O)c3c(C4CC4)sc4cncn34)nn2)cc1)c1ccccc1` (racemic) [Example 189, rac-N-(4-{4-[(2-Cyclopropyl-imidazo[5,1-b]thiazol-3-yl)-hydroxy-methyl]-[1,2,3]triazol-1-yl}-phenyl)-benzamide], the IC50 in assay [1] is 30.6 nM; in assay [2], > 10200 nM.

In the case of `OC(c1cn(-c2ccc(C(F)(F)F)cc2)nn1)c1c(C2CC2)sc2cncn12` (racemic) [Example 6, rac-(2-Cyclopropyl-imidazo[5,1-b]thiazol-3-yl)-[1-(4-trifluoromethyl-phenyl)-1H-[1,2,3]triazol-4-yl]-methanol], the values for the IC50 in assay [1] and in assay [2] were 119 nM and > 10200 nM, respectively.

As to `CC(C)(C)OC(=O)Nc1ccc(-n2cc(C(O)c3c(C4CC4)sc4cncn34)nn2)cc1` (racemic) [Example 180, rac-(4-{4-[(2-Cyclopropyl-imidazo[5,1-b]thiazol-3-yl)-hydroxy-methyl]-[1,2,3]triazol-1-yl}-phenyl)-carbamic acid tert-butyl ester], the 50% inhibitory concentration (IC50) is 33.6 nM in assay [1] and > 10200 nM in assay [2].

Turning to `Cc1c([C@H](O)c2c(C3CC3)sc3cncn23)nnn1-c1ccccc1` [Example 101a, (R)-(2-Cyclopropyl-imidazo[5,1-b]thiazol-3-yl)-(5-methyl-1-phenyl-1H-[1,2,3]triazol-4-yl)-methanol], the IC50 amounted to 6.31 nM in assay [1] and 4410 nM in assay [2].

On to `CC(C)(O)CCOc1ccc(-n2cc([C@H](O)c3c(-c4ccccc4)sc4cncn34)nn2)cc1Cl` [Example 268a, 4-(2-Chloro-4-{4-[(R)-hydroxy-(2-phenyl-imidazo[5,1-b]thiazol-3-yl)-methyl]-[1,2,3]triazol-1-yl}-phenoxy)-2-methyl-butan-2-ol], for which the IC50 is 123 nM in assay [1] and 10000 nM in assay [2].

With `Oc1ccc(-n2cc(C(O)c3c(-c4ccccc4)sc4cncn34)nn2)cc1Cl` (racemic) [Example 264, rac-2-Chloro-4-{4-[hydroxy-(2-phenyl-imidazo[5,1-b]thiazol-3-yl)-methyl]-[1,2,3]triazol-1-yl}-phenol], the IC50 in assay [1] amounted to 93.9 nM; in assay [2] it was 5890 nM.

In the case of `COc1ccc(-n2nnc(C(O)c3c(C4CC4)sc4cncn34)c2C2CC2)cc1` (racemic) [Example 281, rac-(2-Cyclopropyl-imidazo[5,1-b]thiazol-3-yl)-[5-cyclopropyl-1-(4-methoxy-phenyl)-1H-[1,2,3]triazol-4-yl]-methanol], the results for the IC50 in assay [1] and in assay [2] were 13.7 nM and 9020 nM, respectively.

For the molecule `CCc1sc2cncn2c1C(O)c1cn(-c2ccc(O)c(Cl)c2)nn1` (racemic) [Example 323, rac-2-Chloro-4-{4-[(2-ethyl-imidazo[5,1-b]thiazol-3-yl)-hydroxy-methyl]-[1,2,3]triazol-1-yl}-phenol], the IC50 in assay [1] stood at 3.82 nM; in assay [2], 1210 nM.

On to `OC(c1cn(-c2cncc3ccccc23)nn1)c1c(C2CC2)sc2cncn12` (racemic) [Example 26, rac-(2-Cyclopropyl-imidazo[5,1-b]thiazol-3-yl)-(1-isoquinolin-4-yl-1H-[1,2,3]triazol-4-yl)-methanol], for which the IC50 worked out at 5.68 nM in assay [1] and 4190 nM in assay [2].

Take `COc1ccc(-n2cc(C(O)c3c(C4CC4)sc4cncn34)nn2)cc1O` (racemic) [Example 216, rac-5-{4-[(2-Cyclopropyl-imidazo[5,1-b]thiazol-3-yl)-hydroxy-methyl]-[1,2,3]triazol-1-yl}-2-methoxy-phenol]: the half-maximal inhibitory concentration (IC50) in assay [1] is 29.1 nM; in assay [2] it was > 10200 nM.

`OC(c1cn(-c2cnc(OC3CCC3)nc2)nn1)c1c(C2CC2)sc2cncn12` (racemic) [Example 83, rac-[1-(2-Cyclobutoxy-pyrimidin-5-yl)-1H-[1,2,3]triazol-4-yl]-(2-cyclopropyl-imidazo[5,1-b]thiazol-3-yl)-methanol]: the IC50 in assay [1] is 10.9 nM; in assay [2], > 10200 nM.

Turning to `CCc1sc2cncn2c1C(O)c1cn(-c2cc(F)c(O)cc2F)nn1` (racemic) [Example 332, rac-4-{4-[(2-Ethyl-imidazo[5,1-b]thiazol-3-yl)-hydroxy-methyl]-[1,2,3]triazol-1-yl}-2,5-difluoro-phenol], the results for the IC50 in assay [1] and in assay [2] were 5.37 nM and 2820 nM, respectively.

`OC(c1cn(-c2cccnc2)nn1)c1c(C2CC2)sc2cncn12` (racemic) [Example 15, rac-(2-Cyclopropyl-imidazo[5,1-b]thiazol-3-yl)-(1-pyridin-3-yl-1H-[1,2,3]triazol-4-yl)-methanol]: the IC50 in assay [1] was 95.8 nM; in assay [2], > 10200 nM.

As to `CCCCNC(=O)Nc1ccc(-n2cc(C(O)c3c(C4CC4)sc4cncn34)nn2)cc1` (racemic) [Example 188, rac-1-Butyl-3-(4-{4-[(2-cyclopropyl-imidazo[5,1-b]thiazol-3-yl)-hydroxy-methyl]-[1,2,3]triazol-1-yl}-phenyl)-urea], the IC50 was determined as 37.8 nM in assay [1] and 8320 nM in assay [2].

As for `O=C(Nc1ccc(-n2cc(C(O)c3c(C4CC4)sc4cncn34)nn2)cc1)N1CCOCC1` (racemic) [Example 104, rac-Morpholine-4-carboxylic acid (4-{4-[(2-cyclopropyl-imidazo[5,1-b]thiazol-3-yl)-hydroxy-methyl]-[1,2,3]triazol-1-yl}-phenyl)-amide], the IC50 in assay [1] was 30.6 nM; in assay [2], > 10200 nM.

The IC50 is the concentration at which inhibition is half-maximal.
